Laboratory results: patent EP4000623A1, “5-(2-(1H-INDOL-3-YL))-ETHYL)- PIPERAZIN-2-ONE DERIVATIVES FOR USE IN THE TREATMENT OF VIRAL INFECTIONS BY VIRUSES OF THE FAMILY CORONAVIRIDAE” (Consejo Superior De Investigaciones Científicas, priority 2020, dated 2022)
pEC50: −log10 of the molar value. Like-named read-outs stand apart in the source and are kept apart here.

Tests used:
[1] = tested on: hCoV-229E-GFP; format: cell-based, Human coronavirus 229E
[2] = Determination of cytotoxicity by MTT colorimetric assay; format: cell-based; details: African green monkey, uninfected Vero-E6 cells, 50 to 0.78 µM
Experimental: Determination of cytotoxicity by MTT colorimetric assay: To evaluate the cytotoxicity profile of the selected compounds MTT assays were performed in Vero-E6 cells. Uninfected cells were incubated with a range of compound concentrations (from 50 to 0.78 µM) for forty-eight hours, time at which the MTT substrate [3-(4,5-dimethylthiazol-2-yl)-2,5-diphenyltetrazolium bromide] was added and the formation of formazan precipitates was evaluated two hours later, using a colorimetric readout. Vehicle-treated cells were used as reference (100%).

[3] = tested on: SARS-CoV-2; assay: Antiviral potency against SARS-CoV-2 in Vero-E6 cells (protection from virus-induced cytopathic effect / intracellular viral antigen accumulation); format: cell-based
[4] = tested on: SARS-CoV-2; assay: Intracellular viral RNA quantitation by RT-qPCR; format: cell-based; details: 15µM; for intracellular viral RNA levels (in words): as compared with the uninfected controls; for % RNA relative to DMSO: Vero-E6, MOI 0.001, 48 h, SARS-CoV-2 E gene normalised to 18S, DMSO set as 100%
[5] = Severe acute respiratory syndrome coronavirus 2, Vero C1008, SARS-CoV-2 strain NL/2020, Vero-E6 cells, mean, read-out: EC50 mean
[6] = Severe acute respiratory syndrome coronavirus 2, Vero C1008, SARS-CoV-2 strain NL/2020, Vero-E6 cells, mean, read-out: EC90 mean

Row | Structure (SMILES) | % Reduction of hCoV-229E-GFP propagation [1] [%] | CC50 at 48 h [2] [µM] | pEC50 ([3]; Severe acute respiratory syndrome coronavirus 2, Vero C1008, read-out: EC50 mean) | EC90 ([3]; Severe acute respiratory syndrome coronavirus 2, Vero C1008, read-out: EC90 mean) [µM] | pEC50 [3, 5] | EC90 [3, 6] [µM] | intracellular viral RNA levels (in words) [4] | % RNA relative to DMSO [4]
1 | CC(C)(C)OC(=O)NCCCC[C@H]1C(=O)NCC([C@H](Cc2cn(C(=O)OC(C)(C)C)c3ccccc23)NC(=O)OC(C)(C)C)N1Cc1ccccc1 (stereo in doubt) [Example 4, (5R,3S)-4-benzyl-5-((S)-1-(tert-butoxycarbonyl)amino-2-(1-(tert-butoxycarbonyl)(indol-3-yl))-ethyl)-3-(4-(tert-butoxycarbonyl)amino-butyl)-2-oxopiperazine] | 97 | > 50 | 5.80 | 14.7 |  |  |  | 
2 | CC(C)(C)OC(=O)NCCCC[C@@H]1N[C@H]([C@H](Cc2cn(C(=O)OC(C)(C)C)c3ccccc23)NC(=O)OC(C)(C)C)CNC1=O [Example 2, (5S,3S)-5-((S)-1-(tert-butoxycarbonyl)amino-2-(1-(tert-butoxycarbonyl)(indol-3-yl))-ethyl)-3-(4-(tert-butoxycarbonyl)amino-butyl)-2-oxopiperazine] |  | > 50 |  |  | 4.81 | 46.7 |  | 
3 | CC(C)(C)OC(=O)NCCCC[C@H]1C(=O)NC[C@H]([C@H](Cc2cn(C(=O)OC(C)(C)C)c3ccccc23)NC(=O)OC(C)(C)C)N1Cc1ccccc1 [Example 3, (5R,3S)-4-benzyl-5-((S)-1-(tert-butoxycarbonyl)amino-2-(1-(tert-butoxycarbonyl)(indol-3-yl))-ethyl)-3-(4-(tert-butoxycarbonyl)amino-butyl)-2-oxopiperazine] | 94 | > 50 |  |  | 5.20 | 14.3 | virtually undetectable levels | 10^-2%
4 | CC(C)(C)OC(=O)CN1[C@@H]([C@H](Cc2cn(C(=O)OC(C)(C)C)c3ccccc23)NC(=O)OC(C)(C)C)CNC(=O)[C@@H]1CCCCNC(=O)OC(C)(C)C [Example 5, (5R,3S)-5-((S)-1-(tert-butoxycarbonyl)amino-2-(1-(tert-butoxycarbonyl)-(indol-3-yl))-ethyl)-4(tert-butoxycarbonyl)methyl-3-(4-(tert-butoxycarbonyl)aminobutyl)-2-oxopiperazine] | 94 | > 50 |  |  | 5.71 | 7.33 |  | 
5 | CC(C)(C)OC(=O)CN1[C@@H](CCCCNC(=O)OC(C)(C)C)C(=O)NC[C@H]1[C@H](Cc1cn(C(=O)OC(C)(C)C)c2ccccc12)NC(=O)OC(C)(C)C [Example 6, (5S,3S)-5-((S)-1-(tert-butoxycarbonyl)amino-2-(1-(tert-butoxycarbonyl)-(indol-3-yl))-ethyl)-4(tert-butoxycarbonyl)methyl-3-(4-(tert-butoxycarbonyl)aminobutyl)-2-oxopiperazine] | 98 | > 50 |  |  | 5.50 | 9.67 | virtually undetectable levels | 10^-4%
